Experimental data taken from the supplement of paper PMC10307832.

Assays:
Assay in all cases: relative viability (nuclei count vs DMSO), 5 days (fraction); higher = more cells survive
Entinostat + Tozasertib = compound: Nc1ccccc1NC(=O)c1ccc(CNC(=O)OCc2cccnc2)cc1 [Entinostat] + Cc1cc(Nc2cc(N3CCN(C)CC3)nc(Sc3ccc(NC(=O)C4CC4)cc3)n2)n[nH]1 [Tozasertib] (partner 0.1 µM)
Method in brief: (§1)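 After 5 days of treatment, lung cancer cells in 1536-well plates were fixed and stained in a single step (final 0.05% Triton X-100, 1% formaldehyde, 1 ug/ml Hoechst) and their nuclei counted on 4× images. Treatment had been applied by pin tool the day after seeding as one drug alone or as a fixed anchor-drug dose with five library-drug doses (not always all listed) in √10 steps. Relative viability is the nuclei count of treated wells divided by that of vehicle wells, and values are medians of duplicate plates.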

[1] = compound: C1COCCN1C2=NC(=NC3=C2OC4=C3C=CC=N4)C5=CC(=CC=C5)NC(=O)C6=CN=C(C=C6)N + Nc1nc2[nH]cc(CCc3ccc(C(=O)N[C@@H](CCC(=O)O)C(=O)O)cc3)c2c(=O)[nH]1 [Pemetrexed] (partner 0.2 µM)
Method in brief: as §1

[2] = compound: C1COCCN1C2=NC(=NC3=C2OC4=C3C=CC=N4)C5=CC(=CC=C5)NC(=O)C6=CN=C(C=C6)N + O=C(CCCCCCC(=O)Nc1ccccc1)NO [Vorinostat] (partner 1 µM)
Method in brief: as §1

Entinostat + Olaparib = compound: Nc1ccccc1NC(=O)c1ccc(CNC(=O)OCc2cccnc2)cc1 [Entinostat] + O=C(c1cc(Cc2n[nH]c(=O)c3ccccc23)ccc1F)N1CCN(C(=O)C2CC2)CC1 [Olaparib] (partner 8 µM)
Method in brief: as §1

Cell Line	relative viability (Entinostat + Tozasertib; first compound 0.02 µM)	relative viability (Entinostat + Tozasertib; first compound 0.06325 µM)	relative viability (Entinostat + Tozasertib; first compound 0.2 µM)	relative viability (Entinostat + Tozasertib; first compound 0.6325 µM)	relative viability (Entinostat + Tozasertib; first compound 2 µM)	relative viability ([1]; first compound 0.02 µM)	relative viability ([1]; first compound 0.06325 µM)	relative viability ([1]; first compound 0.2 µM)	relative viability ([1]; first compound 0.6325 µM)	relative viability ([1]; first compound 2 µM)	relative viability ([2]; first compound 0.02 µM)	relative viability ([2]; first compound 0.06325 µM)	relative viability ([2]; first compound 0.2 µM)	relative viability ([2]; first compound 0.6325 µM)	relative viability ([2]; first compound 2 µM)	relative viability (Entinostat + Olaparib; first compound 0.02 µM)	relative viability (Entinostat + Olaparib; first compound 0.06325 µM)	relative viability (Entinostat + Olaparib; first compound 0.2 µM)	relative viability (Entinostat + Olaparib; first compound 0.6325 µM)	relative viability (Entinostat + Olaparib; first compound 2 µM)
NCI-H838	0.287	0.261	0.239	0.146	0.127	0.257	0.246	0.25	0.242	0.167	0.725	0.754	0.676	0.646	0.5	0.819	0.79	0.759	0.452	0.201
LOU-NH91	0.736	0.671	0.616	0.523	0.344	0.353	0.363	0.349	0.337	0.456	0.95	0.975	0.926	0.86	0.78	0.863	0.904	0.919	0.806	0.676
BEN	0.476	0.478	0.443	0.356	0.401	0.737	0.795	0.584	0.693	0.665	0.545	0.556	0.589	0.619	0.448	1.22	1.15	1.09	0.64	0.371
NCI-H2085	0.788	0.618	0.612	0.431	0.365	0.795	0.872	0.837	0.825	0.586	0.736	0.802	0.75	0.704	0.706	0.755	0.726	0.717	0.592	0.378
LCLC-103H	0.495	0.35	0.366	0.308	0.214	0.466	0.435	0.444	0.465	0.419	0.806	0.804	0.699	0.728	0.698	0.748	0.738	0.684	0.528	0.447
NCI-H650	0.739	0.652	0.555	0.482	0.212	0.95	0.918	0.945	0.835	0.782	0.495	0.412	0.474	0.515	0.392	0.43	0.425	0.363	0.21	0.171
EPLC-272H	0.265	0.291	0.277	0.154	0.197	0.301	0.318	0.272	0.298	0.319	0.339	0.487	0.286	0.429	0.53	0.726	0.614	0.875	0.273	0.191
EKVX	0.384	0.414	0.323	0.234	0.192	0.436	0.396	0.486	0.382	0.323	0.698	0.794	0.678	0.644	0.556	0.766	0.829	0.825	0.73	0.386
NCI-H1666	0.562	0.535	0.471	0.405	0.346	0.861	0.812	0.699	0.749	0.546	1.07	1.09	0.966	0.736	0.865	0.81	0.759	0.723	0.669	0.539
HCC-15	0.306	0.346	0.258	0.0932	0.0635	0.225	0.228	0.217	0.218	0.242	0.859	0.929	0.881	0.792	0.575	0.684	0.617	0.56	0.377	0.201
LCLC-97TM1	0.218	0.213	0.192	0.177	0.167	0.199	0.195	0.181	0.203	0.2	0.804	0.862	0.751	0.755	0.43	0.476	0.402	0.41	0.32	0.364
NCI-H2347	0.355	0.382	0.345	0.175	0.18	0.416	0.528	0.433	0.417	0.427	0.582	0.494	0.645	0.528	0.559	0.636	0.537	0.455	0.35	0.32
NCI-H1915	0.446	0.385	0.338	0.267	0.212	0.51	0.515	0.471	0.476	0.369	0.539	0.572	0.536	0.536	0.397	0.244	0.274	0.23	0.21	0.144
NCI-H647	0.32	0.214	0.228	0.0707	0.0371	0.175	0.155	0.141	0.138	0.114	0.625	0.757	0.502	0.433	0.29	0.522	0.333	0.426	0.0646	0.0559
NCI-H1650	0.336	0.366	0.332	0.223	0.204	0.391	0.384	0.377	0.376	0.3	0.512	0.611	0.406	0.642	0.354	0.828	0.967	0.819	0.527	0.363
NCI-H520	0.47	0.441	0.38	0.331	0.325	0.653	0.752	0.655	0.685	0.351	0.74	0.747	0.77	0.699	0.451	0.336	0.346	0.272	0.237	0.149
